We go through one compound from patent US10835416B2, “Ocular insert apparatus and methods” (ForSight Vision5, Inc., priority 2011, dated 2020).

Data set [1] relates to eye of a subject. The data set is described as follows: IOP over time in a patient with a bimatoprost-loaded insert on one eye (FIG. 23). The settings on record: right eye (OD) with ring insert, silicone matrix (NuSil Med 4810) with about 2% bimatoprost, decreased from about 22 mm Hg, to about 28 days post-op. In kind it is in vivo, human. From the text:
(§1) Test devices comprising a ring shaped retention structure comprising a nylon suture and a support structure 120 having inclined surfaces were placed in an eye of a subject. The support structure comprised a therapeutic agent contained in a silicone matrix. The silicone matrix comprised inclusions of the therapeutic agent as described herein, and the therapeutic agent comprised a prostaglandin. The silicone matrix comprised NuSil Med 4810 and the amount prostaglandin comprised about 2% bimatoprost. The cross-sectional diameter of the support comprising the matrix was about 1 mm and extended about 90 degrees around the ring shaped suture with the suture extending there through. The amount of therapeutic agent within the matrix can be increased with additional studies and embodiments, for example to within a range from about 5-10% prostaglandin such as bimatoprost. […] The ring was inserted in the right eye (OD) and the TOP decreased from about 22 mm Hg to within a range from about 15 to 18 mm Hg to about 28 days post-op. The TOP of the untreated left eye (OS) remained substantially constant and within a range from about 19 mm Hg to about 22 mm Hg. The therapeutic agent comprised a prostaglandin, bimatoprost, and the estimated amount released per day started at approximately 22 ug/day and decreased to approximately 1 ug/day. […]

A short description of data set [2]: Estimated amount of bimatoprost released per day from the Experiment 6 test device. The settings on record: insert with about 2% bimatoprost in silicone matrix. The data set is classed as physicochemical.
Source text: as §1

Data set [3] can be described thus: Rate of release of bimatoprost from insert with silicone matrix (FIGS. 26A, 26B). In kind it is physicochemical. How it is done:
FIGS. 26A and 26B show rates of release of prostaglandin comprising bimatoprost from an insert comprising a silicone matrix. The estimated rate of release for a matrix having 7% prostaglandin comprising bimatoprost loaded on the insert is above 3.5 ug per day for at least about 90 days. The rate of release of prostaglandin comprising bimatoprost was measured from a matrix comprising medical grade silicone having an approximate durometer of 10 A. The configuration of the insert and matrix is described in Table 3 with reverence to mono v.1 which comprises a 1 mm diameter silicone matrix extending along a 75 degree arc length. The surface area was 47.9 mm^2 and the volume 10.4 mm^3. For the 7% loading the amount of drug loaded on the device was about 700 μg. The rate of release of about 0.9 ug/day for 90 days was measured and the rate of release for 120 days was estimated. The therapeutic agent was released for 70 days above 1 ug per day. Based on Table 3, the matrix can be configured to release additional amounts therapeutic agent. For example, the rate of release can be increased by more than 4× by extending the matrix 360 degrees around the suture.

Data set [4] in a line: Wash time in 70% isopropanol bath and rate of release from silicone matrices (FIG. 27). The data set is classed as physicochemical. The conditions noted are these: silicone ring with 7% bimatoprost; for elution rate: initial. Here is the method: The experiments were conducted with silicone rings having 7% prostaglandin comprising bimatoprost and medical grade silicone having a rated durometer of Shore A 10 without drug. The elution rate for the unwashed matrix (“0 wash”) was about 35 ug per day and decreased substantially. […] By day 14 the rate of release was substantially the same for each of the unwashed matrix, the matrix washed for 15 minutes, matrix washed for 60 minutes, and the matrix washed for 180 minutes.

Data set [5] relates to eye of a test subject. Kind of data set: IOP of a test subject wearing successive inserts (FIG. 28). The data set is classed as in vivo, human. Here is the method: The initial studies on the test subject appear to indicate it may be helpful to provide greater amounts of therapeutic agent than would be provided based on eye drop estimates. The TOP was measured and amounts of therapeutic agent estimated. […] The twin insert was placed in a solution when the patient insert was placed in the eye. The measured rate of release of the twin placed in solution was used to determine the rate of release of the insert placed in the eye. The data of this small study indicate that in at least some instances for some patients, the target threshold amount of therapeutic agent released continuously from an insert placed in the eye may be greater than the amount provided to tissue by drops. It was observed that providing amounts of therapeutic agent greater than the estimated amount provided by drops may provide an improved result. It was observed that after about sixty days the TOP had increased to about 19.5 mm Hg was close to the control eye, and the determined rate of release was about 1.2 ug of prostaglandin comprising bimatoprost per day. The insert was replaced with a second insert providing a rate of release of about 1.6 to 2.5 ug per day based on twin measurements, and the TOP decreased to within a range from about 17 to 18 mm Hg. The second insert was replaced with a third insert providing over 3.8 to 4 ug per day based on twin measurements, and the TOP decreased further to within a range from 14.5 to 16 mm Hg.

The nature of data set [6]: Rate of release measured on twin insert placed in solution (FIG. 28). In kind it is physicochemical. The conditions noted are these: for rate of release: based on twin measurements. Here is the method: The initial studies on the test subject appear to indicate it may be helpful to provide greater amounts of therapeutic agent than would be provided based on eye drop estimates. The TOP was measured and amounts of therapeutic agent estimated. […] The twin insert was placed in a solution when the patient insert was placed in the eye. The measured rate of release of the twin placed in solution was used to determine the rate of release of the insert placed in the eye.

[7] abbreviates: 60 minute wash in 70% isopropanol.
The mark [8] stands for this setting: 180 minute wash in 70% isopropanol.

As for `CCNC(=O)CCC/C=C\C[C@@H]1[C@@H](/C=C/[C@@H](O)CCc2ccccc2)[C@H](O)C[C@@H]1O` [bimatoprost], the TOP in data set [1] is recorded as 15 to 18 mm Hg; in data set [5] (first insert, after about sixty days, close to the control eye) it was “about 19.5 mm Hg”; in data set [5] (second insert), 17 to 18 mm Hg; in data set [5] (third insert), 14.5 to 16 mm Hg. Further, the “estimated amount released per day, end” value in data set [2] (decreased to) is reported as “about 1 ug/day”. Also, in data set [2] (started at), the “estimated amount released per day, start” value was “about 22 ug/day”. Besides, the “estimated rate of release” value is on record as “above 3 ug per day” in data set [3] (matrix having 7% bimatoprost loaded on an insert, for at least about 120 days) and “above 3.5 ug per day” in data set [3] (matrix having 7% bimatoprost loaded on the insert, for at least about 90 days). Further, the rate of release entry is recorded as “about 0.9 ug/day” in data set [3] (mono v.1: 1 mm diameter 10 A silicone matrix, 75 degree arc, 7% loading (about 700 μg), measured for 90 days); 1.6 to 2.5 ug per day in data set [6] (second insert); 3.8 to 4 ug per day in data set [6] (third insert). For the same compound, the “initial rate of release” value in data set [4] (setting [7]) and in data set [4] (setting [8]) was “about 13 ug per day” throughout. Also, the “rate of release at 15 days” value in data set [4] (setting [7]) and in data set [4] (setting [8]) was “about 5 ug per day” each time. The elution rate result in data set [4] (unwashed matrix (0 wash)) was “about 35 ug per day”; in data set [4] (washed for 15 minutes in 70% isopropanol), “about 17 ug per day”. Further, the “determined rate of release” value in data set [6] (first insert, after about sixty days, twin insert in solution) was “about 1.2 ug per day”.
